Data: patent publication US9963467B2, “Boronic acid derivatives and therapeutic uses thereof” (Rempex Pharmaceuticals, Inc., priority 2014, dated 2018)
Like-named read-outs stand apart in the source and are kept apart here.

How the values were obtained:
EC1010 (CMY-6) [1] = experiment: Tigemonam potentiation (MPC@4), EC1010; format: cell-based; conditions: BLI with tigemonam at 4 μg/mL
OXA-48 = OXA-48 (Klebsiella pneumoniae, UniProt Q6XEC0); experiment: Ki, nitrocefin cleavage by purified enzyme, OXA-48; format: biochemical; conditions: nitrocefin reporter substrate; read-out: Ki (OXA-48, NCF)
How it was run: (§1)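 10 min RT preincubation, enzyme with inhibitor series in reaction buffer. Substrate nitrocefin; kinetic read 490 nm, 10 sec intervals, 10 min total.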

ec308 (SHV-5) = experiment: Tigemonam potentiation (MPC@4), ec308; format: cell-based
CTX-M-14 = CTX-M-14 (Escherichia coli, UniProt Q9L5C7); experiment: Ki, nitrocefin cleavage by purified enzyme, CTX-M-14; format: biochemical; conditions: nitrocefin reporter substrate; read-out: Ki (CTX-M-14, NCF)
How it was run: as §1

KP1005 (CTX-M-14) = experiment: Tigemonam potentiation (MPC@4), KP1005; format: cell-based; conditions: BLI with tigemonam at 4 μg/mL
KP1004 (KPC-2) = experiment: Biapenem potentiation (MPC@1), KP1004; conditions: BLI with biapenem at 1 μg/mL
ec302 (TEM-10) [2] = experiment: Aztreonam potentiation (MPC@4), ec302; format: cell-based; conditions: BLI with aztreonam at 4 μg/mL
KPC-2 = KPC-2 (Klebsiella pneumoniae, UniProt Q9F663); experiment: Ki, nitrocefin cleavage by purified enzyme, KPC-2; format: biochemical; conditions: nitrocefin reporter substrate; read-out: Ki (KPC-2, NCF)
How it was run: as §1

KP1010 (SHV-12) = experiment: Tigemonam potentiation (MPC@4), KP1010; format: cell-based
[3] = Intravenous pharmacokinetics; format: in vivo; conditions: rat, plasma; rats, 20 mg/kg, intravenous infusion over 0.5 hours; read-out: Free Cl (converted)
Experimental: Rats (n=3 per compound) were administered by a single infusion. Intravenous doses were infused over 0.5 hours via an indwelling femoral vein cannula. […] (˜0.3 mL) samples were collected from each rat at designated time points up to 24 hours. Blood samples were centrifuged within 5 min of collection at 12000 g for 5 min to obtain plasma. The plasma samples were stored at −80° C. until analyzed. Data were analyzed using WinNonlin. The doses of all compounds tested were 20 mg/kg.

ECL1002 [4] = experiment: Tigemonam potentiation (MPC@4), ECL1002; format: cell-based; conditions: BLI with tigemonam at 4 μg/mL
ec302 (TEM-10) [5] = experiment: Tigemonam potentiation (MPC@4), ec302; format: cell-based
ECL1002 [6] = experiment: Aztreonam potentiation (MPC@4), ECL1002; format: cell-based; conditions: BLI with aztreonam at 4 μg/mL
P99 = P99 (Enterobacter cloacae, UniProt P05364); experiment: Ki, nitrocefin cleavage by purified enzyme, P99; format: biochemical; conditions: nitrocefin reporter substrate; read-out: Ki (P99, NCF)
How it was run: as §1

KP1086 (OXA-48) = experiment: Biapenem potentiation (MPC@1), KP1086; conditions: BLI with biapenem at 1 μg/mL
KP1009 (CTX-M-15) = experiment: Tigemonam potentiation (MPC@4), KP1009; format: cell-based; conditions: BLI with tigemonam at 4 μg/mL
SHV-12 = SHV-12 (Klebsiella pneumoniae, UniProt P0AD64, E235K/G234S/L31Q); experiment: Ki, nitrocefin cleavage by purified enzyme, SHV-12; format: biochemical; conditions: nitrocefin reporter substrate; read-out: Ki (SHV-12, NCF)
How it was run: as §1

[7] = Monomer content of pH adjusted aqueous solutions (LC-UV); format: physicochemical; conditions: pH adjusted to 7.6 to 8, LC-UV
How it was run: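 Aqueous solutions at 1.00, 10.0 or 100 mg/mL (active fraction) brought to pH 7.6–8 with acid or base, compound fully dissolved. Injected within half an hour of preparation onto C18 reversed-phase LC (0.1% TFA water / 0.085% TFA methanol gradient); UV detection at 220, 254 and 300 nm.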

Pa AmpC = Pa AmpC (Pseudomonas aeruginosa, UniProt P24735); experiment: Ki, nitrocefin cleavage by purified enzyme, Pa AmpC; format: biochemical; conditions: nitrocefin reporter substrate; read-out: Ki (Pa AmpC, NCF)
How it was run: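 Nitrocefin hydrolysis by purified β-lactamase is followed at 490 nm every 10 sec for 10 min. Before substrate is added, enzyme sits with varying inhibitor concentrations for 10 min at room temperature. Ki comes from these cleavage profiles.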

EC1010 (CMY-6) [8] = experiment: organism not typed; format: cell-based

Chain of OXA-48 (Q6XEC0 23-265, looked up, species assumed): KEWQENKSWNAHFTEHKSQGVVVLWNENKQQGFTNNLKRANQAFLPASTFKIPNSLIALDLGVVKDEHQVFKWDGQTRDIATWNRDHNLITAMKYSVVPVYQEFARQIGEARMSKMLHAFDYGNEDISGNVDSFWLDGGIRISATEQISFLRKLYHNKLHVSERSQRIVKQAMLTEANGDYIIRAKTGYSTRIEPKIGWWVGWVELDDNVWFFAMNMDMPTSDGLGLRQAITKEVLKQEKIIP
Chain of CTX-M-14 (Q9L5C7 29-291): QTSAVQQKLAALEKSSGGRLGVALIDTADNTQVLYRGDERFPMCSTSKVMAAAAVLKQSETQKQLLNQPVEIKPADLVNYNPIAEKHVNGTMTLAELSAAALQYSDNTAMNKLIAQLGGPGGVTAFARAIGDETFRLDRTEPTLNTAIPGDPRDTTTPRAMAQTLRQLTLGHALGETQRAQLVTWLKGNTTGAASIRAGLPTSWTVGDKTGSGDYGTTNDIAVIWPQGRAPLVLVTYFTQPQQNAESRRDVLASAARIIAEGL
Chain of SHV-12 (P0AD64 22-286 L31Q/G234S/E235K): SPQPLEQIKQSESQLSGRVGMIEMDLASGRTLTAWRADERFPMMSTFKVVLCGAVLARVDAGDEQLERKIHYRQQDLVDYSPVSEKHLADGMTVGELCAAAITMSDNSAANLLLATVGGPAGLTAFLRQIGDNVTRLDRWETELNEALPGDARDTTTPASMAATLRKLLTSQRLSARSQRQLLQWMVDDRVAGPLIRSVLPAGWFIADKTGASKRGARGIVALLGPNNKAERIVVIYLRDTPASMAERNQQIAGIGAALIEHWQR
Chain of KPC-2 (Q9F663 25-293, looked up, species assumed): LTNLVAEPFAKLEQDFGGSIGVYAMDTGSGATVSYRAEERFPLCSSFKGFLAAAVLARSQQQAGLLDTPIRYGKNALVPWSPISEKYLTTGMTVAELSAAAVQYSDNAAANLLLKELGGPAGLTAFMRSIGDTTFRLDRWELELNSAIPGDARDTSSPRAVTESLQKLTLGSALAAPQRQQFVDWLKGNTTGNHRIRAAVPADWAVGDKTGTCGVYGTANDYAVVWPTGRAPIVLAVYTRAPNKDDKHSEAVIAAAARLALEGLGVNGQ
Chain of P99 (P05364 21-381): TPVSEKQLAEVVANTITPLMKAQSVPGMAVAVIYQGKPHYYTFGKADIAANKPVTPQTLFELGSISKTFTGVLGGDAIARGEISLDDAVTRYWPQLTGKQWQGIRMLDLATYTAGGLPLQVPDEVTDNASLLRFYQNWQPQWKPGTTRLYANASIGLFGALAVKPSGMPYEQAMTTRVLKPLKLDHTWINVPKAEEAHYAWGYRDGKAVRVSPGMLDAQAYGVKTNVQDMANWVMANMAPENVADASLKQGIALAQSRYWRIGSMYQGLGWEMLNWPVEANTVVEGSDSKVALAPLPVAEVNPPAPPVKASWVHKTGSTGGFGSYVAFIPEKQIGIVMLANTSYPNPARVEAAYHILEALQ
Chain of Pa AmpC (P24735 27-397): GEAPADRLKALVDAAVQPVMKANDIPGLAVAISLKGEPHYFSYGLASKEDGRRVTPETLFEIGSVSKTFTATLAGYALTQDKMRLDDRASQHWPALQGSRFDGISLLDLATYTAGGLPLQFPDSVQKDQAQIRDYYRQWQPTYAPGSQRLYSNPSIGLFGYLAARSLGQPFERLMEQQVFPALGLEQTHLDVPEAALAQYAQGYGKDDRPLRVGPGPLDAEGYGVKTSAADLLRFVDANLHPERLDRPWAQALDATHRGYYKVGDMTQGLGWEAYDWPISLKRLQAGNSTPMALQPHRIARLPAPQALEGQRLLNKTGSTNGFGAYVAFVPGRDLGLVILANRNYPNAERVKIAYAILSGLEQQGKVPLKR

Row | SMILES | TIG MPC4 CMY-6 EC1010 (EC1010 (CMY-6) [1]) | Ki (OXA-48) [nM] | Ki (CTX-M-14) [nM] | TIG MPC4 CTX-M-14 KP1005 (KP1005 (CTX-M-14)) | BPM MPC1 KP1004 KPC-2 (KP1004 (KPC-2)) | AZT MPC4 TEM-10 ec302 (ec302 (TEM-10) [2]) | Ki (KPC-2) [nM] | clearance [3] [mL/min/kg] | TIG MPC4 ECL1002 (ECL1002 [4]) | AZT MPC4 ECL1002 (ECL1002 [6]) | Ki (P99) [nM] | BPM MPC1 OXA-48 KP1086 (KP1086 (OXA-48)) | TIG MPC4 CTX-M-15 KP1009 (KP1009 (CTX-M-15)) | Ki (SHV-12) [nM] | also measured
1 | CSCC(=O)N[C@H]1Cc2ccc(F)c(C(=O)O)c2OB1O [Compound 1, (R)-7-fluoro-2-hydroxy-3-(2-(methylthio)acetamido)-3,4-dihydro-2H-benzo[e][1,2]oxaborinine-8-carboxylic acid] | X (MIC of less than 1 μg/mL) | > 10 | < 1 | X (MIC of less than 1 μg/mL) | X (MIC of less than 1 μg/mL) | Y (MIC of 1 μg/mL to 10 μg/mL) | > 10 | 14.2 | X (MIC of less than 1 μg/mL) | Y (MIC of 1 μg/mL to 10 μg/mL) | > 10 | Y (MIC of 1 μg/mL to 10 μg/mL) | X (MIC of less than 1 μg/mL) | < 1 | TIG MPC4 SHV-5 ec308 (ec308 (SHV-5); BLI with tigemonam at 4 μg/mL): X (MIC of less than 1 μg/mL); TIG MPC4 SHV-12 KP1010 (KP1010 (SHV-12); BLI with tigemonam at 4 μg/mL): X (MIC of less than 1 μg/mL); TIG MPC4 TEM-10 ec302 (ec302 (TEM-10) [5]; BLI with tigemonam at 4 μg/mL): Y (MIC of 1 μg/mL to 10 μg/mL); % Monomer in 1 mg/mL salt solution ([7]; 1 mg/mL aqueous salt solution): 98.0%; % Monomer in 10 mg/mL salt solution ([7]; 10 mg/mL aqueous salt solution): 97.5%; % Monomer in 100 mg/mL salt solution ([7]; 100 mg/mL aqueous salt solution): 96.4%
2 | O=C(CSC1CNC1)N[C@H]1Cc2ccc(F)c(C(=O)O)c2OB1O [Compound 2, (R)-3-(2-(azetidin-3-ylthio)acetamido)-7-fluoro-2-hydroxy-3,4-dihydro-2H-benzo[e][1,2]oxaborinine-8-carboxylic acid] | X (MIC of less than 1 μg/mL) | > 10 | < 1 | X (MIC of less than 1 μg/mL) | X (MIC of less than 1 μg/mL) | Y (MIC of 1 μg/mL to 10 μg/mL) | > 10 | 10.2 | X (MIC of less than 1 μg/mL) | Y (MIC of 1 μg/mL to 10 μg/mL) | > 10 | Y (MIC of 1 μg/mL to 10 μg/mL) | X (MIC of less than 1 μg/mL) | < 1 | Ki (Pa AmpC): > 10 nM; TIG MPC4 SHV-5 ec308 (ec308 (SHV-5)): X (key: X: MIC of less than 1 μg/mL; Y: MIC of 1 μg/mL to 10 μg/mL; Z: MIC of greater than 10 μg/mL); TIG MPC4 SHV-12 KP1010 (KP1010 (SHV-12)): X (key: X: MIC of less than 1 μg/mL; Y: MIC of 1 μg/mL to 10 μg/mL; Z: MIC of greater than 10 μg/mL); AZT MPC4 CMY-6 EC1010 (EC1010 (CMY-6) [8]): Y (key: X: MIC of less than 1 ng/mL; Y: MIC of 1 μg/mL to 10 μg/mL; Z: MIC of greater than 10 μg/mL); TIG MPC4 TEM-10 ec302 (ec302 (TEM-10) [5]): Y (key: X: MIC of less than 1 ng/mL; Y: MIC of 1 μg/mL to 10 μg/mL; Z: MIC of greater than 10 μg/mL)
